Source: PMC11589483, “Preparation and anti-colon cancer effect of a novel curcumin analogue (CA8): in vivo and in vitro evaluation” (Frontiers in Pharmacology, 2024)
Like-named read-outs stand apart in the source and are kept apart here.

Columns and labels:
lung cancer cells A549 = test: MTT antiproliferative assay, A549; assay type: cell-based; settings: Homo sapiens
Description: (§1) The human cancer cell lines A549, HepG2, MCF-7, Caco-2, and HeLa and the normal human liver cell line LO2 were all obtained from Shanghai Cell Bank of China. All cells were cultured in RPMI 1640 or DMEM supplemented with 10% fetal bovine serum, 100 U/mL penicillin, and 100 μg/mL streptomycin and incubated at 37°C under 5% CO2 (HEPA incubator class100 Thermo company). The medium was replaced three times a week. Cells used in all were in the exponential growth phase.
(§2) The cell inhibition rate was evaluated using the MTT assay. Briefly, cells were seeded in a 96-well plate at a density of 3–4 × 10^3 cells per well and incubated at 37°C for 24 h. The MCACs to be tested were dissolved in dimethyl sulfoxide (DMSO, Merck, Germany) and diluted to five concentrations (3.75, 7.5, 15, 30, 60 μM/L) with RPMI 1640 medium, with each dose analyzed in quadruplicate. The concentration of DMSO was always maintained below 1‰, a concentration that is nontoxic to cells. After incubation for 24 or 48 h, MTT reagent (5 mg/mL) was added to each well and the samples were incubated for 3 h at 37°C in the dark. The absorbance of formazan crystals dissolved in 150 µL of DMSO was measured at 570 nm using a microplate reader to identify the cytotoxic effect of the analogues.

[1] = tested on: breast cancer cells MCF-7; test: MTT antiproliferative assay, MCF-7; assay type: cell-based; settings: Homo sapiens
Description: as §1, §2

[2] = tested on: cervical cancer cells HeLa; test: MTT antiproliferative assay, HeLa; assay type: cell-based; settings: Homo sapiens
Description: as §1, §2

[3] = tested on: colon cancer cells Caco-2; test: MTT antiproliferative assay, Caco-2; assay type: cell-based, human; settings: for SI Caco2: logarithm of ratio IC50 LO2 / IC50 cancer cells; for IC50: Homo sapiens, read-out: IC50 Caco2
Description: as §1, §2

Caco-2 cells [4] = test: Clonogenic assay; assay type: cell-based, human; settings: 4, 8, or 16 μM/L, 6 h exposure
Description: Caco-2 cells were seeded into a 6-well plate at a density of 1 × 10^3 cells per well and incubated overnight. Then, the medium was replaced, and CA8 was added at the prescribed concentrations (4, 8, or 16 μM/L). After 6 h, the drug-containing medium was replaced with RPMI 1640 medium.
Caco-2 cells in 6-well plates were incubated for 1–2 weeks until the appearance of the colonies, followed by staining with crystal violet and incubation for 1 h at room temperature. After staining, images were captured accordingly.

Caco-2 cells [5] = test: Hoechst 33,258 staining; assay type: cell-based, human; settings: Caco-2, 24 h
Description: Caco-2 cells were seeded in 6-well plates at a density of 5 × 10^5 cells per well and incubated overnight, followed by the addition of the prescribed concentration (4, 8, or 16 μM/L) of CA8. After 24 h of incubation, cells were fixed and stained with Hoechst 33,258.

Caco-2 cells [6] = test: Cell cycle analysis (flow cytometry); assay type: cell-based, human; settings: 4, 8, 16 μM, 24 h
Description: Caco-2 cells treated with CA8 at dose of 4, 8, or 16 μM/L for 24 h, they were collected, washed with PBS, and fixed in 70% ethanol overnight. The fixed cells were washed twice with PBS, treated with RNase A (10 mg/mL) and resuspended in 50 μg/mL propidium iodide for staining. Finally, the cell cycle distribution was assessed via flow cytometry (BD Biosciences, CA).

[7] = tested on: AKT, JNK, and NF-κB signaling pathways and apoptosis-related proteins; test: Western blot of signaling and apoptosis proteins in Caco-2 cells; assay type: cell-based, human; settings: 24 h
Description: The expression of apoptotic proteins and pathways was detected using western blot. Caco-2 cells treated with CA8 at a dose of 4, 8, or 16 μM/L for 24 h were collected and lysed with RIPA lysis buffer for 10 min. The concentration of total proteins was determined using a BCA protein quantitative kit. Total proteins were separated on an SDS-PAGE gel, transferred to PVDF membranes and incubated with 5% skim milk for 2 h. Subsequently, the PVDF membranes were incubated with primary antibodies (AKT 1:2000; Bcl-2 1:2000; Bax 1:5000; caspase-3 1:2,000; caspase-9 1:1000; P-AKT 1:1000; JNK 1:1000; P-JNK 1:1000; IKBα 1:2000; and β-actin 1:100000) at 4°C overnight. The membranes were rinsed three times with TBST and incubated with secondary antibodies (1:5000 dilution) for 2–3 h at room temperature. Finally, proteins were visualized using an ECL chemiluminescent kit (KF001, affinity). In the final step, the ImageJ software was used to analyze the results.

[8] = Pharmacokinetics evaluation after gavage; assay type: in vivo, Sprague Dawley (SD) rats; settings: SD rats
Description: After the evaluation of the safety of CA8, 10 male Sprague Dawley (SD) rats were randomly divided into the CA8 and CU groups for the pharmacokinetic test ([Ye et al., 2020]). The rats were subjected to 1 week of adaptation and were fasted for 6 h before the experiment. CA8 (50 mg kg^−1) and CU (50 mg kg^−1) were administered via gavage. Blood samples were collected at 0.03, 0.08, 0.16, 0.25, 0.5, 1, 2, 4, 8 and 12 h and centrifuged at 5,000 rpm for 3 min to obtain the plasma. A mixture of ethyl acetate and methanol was then added to precipitate the proteins and separate the CA8 and CU from the plasma. The samples were then analyzed using HPLC.

[9] = Caco-2, 4, 8, 16 μM, vs control

SMILES: COc1cc(/C=C2\CN(C(C)C)C/C(=C\c3cc(OC)c(O)c(OC)c3)C2=O)cc(OC)c1O [CA8]
- IC50 (lung cancer cells A549; A549, 24 h): 5.66 ± 0.25 µM
- IC50 (lung cancer cells A549; A549, 48 h): 9.31 ± 1.08 µM
- IC50 ([1]; MCF7, 24 h): 10.9 ± 4.21 µM
- IC50 ([1]; MCF7, 48 h): 7.23 ± 1.55 µM
- IC50 ([2]; 24 h): 4.26 ± 0.52 µM
- IC50 ([2]; 48 h): 1.96 ± 0.09 µM
- SI Caco2 ([3]; 24 h): 0.02
- cytotoxicity on Caco-2 cells compared with CU ([3]; 48 h): 19.2 times
- SI Caco2 ([3]; 48 h): 0.07
- IC50 ([3]; Caco-2, 24 h): 4.06 ± 0.89 µM
- IC50 ([3]; Caco-2, 48 h): 1.71 ± 0.06 µM
- Caco-2 colony formation (Caco-2 cells [4]): showed Caco-2 colony formation inhibition
- nuclear morphology / apoptotic cells (Caco-2 cells [5]): many apoptotic cells were observed
- cell cycle arrest (Caco-2 cells [6]): induced G2/M phase arrest in a concentration-dependent manner
- expression of Bax, caspase-3, and caspase-9 ([7]; Caco-2, 4, 8, 16 μM): increased in a concentration-dependent manner
- expression of P-AKT [7, 9]: inhibited the expression of P-AKT
- expression of P-JNK and IκBα [7, 9]: induced the expression of P-JNK and IκBα in a concentration-dependent manner
- expression of anti-apoptotic protein BCL-2 ([7]; Caco-2, high concentration): significantly inhibited
- AUC (0-t) / bioavailability relative to CU ([8]; oral): 6.23 fold
- MRT (0-t) / mean residence time relative to CU ([8]; oral): 3.35 fold
- biological half-life relative to CU ([8]; oral): 2.38 fold
- time after dosing until cleared from / still detected in plasma ([8]; oral 50 mg kg^−1): > 8 h
- AUC(0-t) ([8]; oral (gavage) 50 mg kg^−1): 222,562.75 μg/L*min
- CLz ([8]; oral (gavage) 50 mg kg^−1): 11.4 L/h/kg
- Vz ([8]; oral (gavage) 50 mg kg^−1): 49.53 L/kg
- Cmax ([8]; male, Sprague Dawley, rat, plasma, oral (gavage) 50 mg kg^−1): 1.36 µg/mL
- MRT last ([8]; male, Sprague Dawley, rat, plasma, oral (gavage) 50 mg kg^−1, read-out: MRT(0-t) (converted)): 3.02 h
- Tmax ([8]; male, Sprague Dawley, rat, plasma, oral (gavage) 50 mg kg^−1, read-out: Tmax (converted)): 0.167 h
- half-life ([8]; male, Sprague Dawley, rat, plasma, oral (gavage) 50 mg kg^−1, read-out: t1/2z): 2.98 h
